Source: patent US20220363671A1, “GLUE DEGRADERS AND METHODS OF USE THEREOF” (NOVARTIS AG, priority 2019, published 2022)

Legend:
Type in all cases: cell-based
[1] = biological target: T1, IKZF1 (Homo sapiens, UniProt Q13422+Q96SW2); assay: Prolabel quantification of IKZF1 protein levels in GripTite 293 MSR cell line; conditions: Pro-label assay; for percent IKZF1 protein reduction at 10 µM: 24 h; for DC50: Ikaros degradation, read-out: IKZF1 EC50
T1 construct: expressed in transfected cells
Text: (§1) Example 18: Prolabel Quantification of IKZF1, GSPT1, or SALL4 protein levels in GripTite™ 293 MSR Cell line
(§2) The Prolabel system from DiscoverX was used to develop high-throughput and quantitative assays to measure changes in IKZF1, GSPT1, and SALL4 protein levels in response to compounds. The prolabel tag is derived from the alpha fragment of beta galactosidase and has the following protein sequence: mssnslavvlgrrdwenpgvtglnrlaahppfaswrnseeartdrpsqqlrsinge (SEQ ID NO. 1). The complementary fragment of beta-galactosidase (from DiscoverX), is added to the prolabel tag to form an active beta galactosidase enzyme whose activity can be precisely measured. In this way, the levels of a fusion protein with the prolabel tag can be quantified in cell lysates.
(§3) Lentiviral vectors, based on the Invitrogen pLenti6.2/V5 DEST backbone, were constructed that placed the prolabel tag upstream of IKZF1, GSPT1, or SALL4 and expressed the fusion protein from a CMV promoter.
(§4) To ensure moderate and consistent expression of the prolabel fusion proteins across all cells in the population, stable cell lines were constructed from cells expressing a single copy of the construct. Lentivirus packaged with the constructs was made using the Virapower kit from Invitrogen. Strongly adherent 293GT cell, GripTite 293 MSR cells from Thermo Fisher Scientific (Catalog number: R79507), were infected with the virus at low multiplicity of infection and selected by 5 μg/mL blasticidin for 2 weeks.
(§5) The levels of prolabel tagged fusion proteins in compound treated cell lines were measured as follows:
(§6) Day 1, Cells were diluted to 1.0×10^6 cells/mL in normal growth medium. 17.5 μL of cells were plated in each well of a solid white 384 well plate. Plates were incubated overnight in a 37° C. tissue culture incubator.
(§7) Day 2, Serial dilutions of compounds were made in 384 well plates from 10 mM stocks. 15 μL of DMSO was added to each well of a 384 well plate. In the first column, 15 μL of stock compound was added. The solution was mixed and 15 μL was transferred to the next column. This was repeated until 20 two-fold dilutions were prepared. 2.5 μL of the diluted compounds were transferred into 60 μL of cell culture medium in another 384 well plate, and mixed well. 2.5 μL of this mixture was added to the plated cells. The final DMSO concentration was 0.5% and the highest concentration of compound was 50 μM. Plates were incubated overnight (e.g., about 14 h, 18 h, or 24 h) in a 37° C. tissue culture incubator.
(§8) Day 3, Plates were removed from the incubator and allowed to equilibrate at room temperature for 30 minutes. Prolabel substrate (DiscoverX PathHunter Prolabel Detection Kit, User manual: 93-0180) was added as described by the manufacturers protocols. Plates were incubated at room temperature for three hours and luminescence was read using an Envision reader (Perkin Elmer) Data was analyzed and visualized using the Spotfire software package.

[2] = biological target: T2, SALL4 (Homo sapiens, UniProt Q96SW2+Q9UJQ4); assay: Prolabel quantification of SALL4 protein levels in GripTite 293 MSR cell line; conditions: Pro-label assay
T2 construct: expressed in transfected cells
Text: as §1, §2
Lentiviral vectors, based on the Invitrogen pLenti6.2/V5 DEST backbone, were constructed that placed the prolabel tag upstream of IKZF1, GSPT1, or SALL4 and expressed the fusion protein from a CMV promoter. […]
The levels of prolabel tagged fusion proteins in compound treated cell lines were measured as follows: […]
as §8, with “Prolabel substrate (DiscoverX PathHunter Prolabel Detection Kit, User manual: 93-0180) was added as described by the manufacturers protocols.” left out

[3] = biological target: T3, GSPT1 (Homo sapiens, UniProt P15170+Q96SW2); assay: Prolabel quantification of GSPT1 protein levels in GripTite 293 MSR cell line; conditions: Pro-label assay; for DC50: GSPT1 degradation, read-out: GSPT1 EC50
T3 construct: expressed in transfected cells
Text: as §1, §2, §3, §4, §5, §6, §7
as §8, with “Prolabel substrate (DiscoverX PathHunter Prolabel Detection Kit, User manual: 93-0180) was added as described by the manufacturers protocols.” left out

T1 sequence (Q13422 whole entry, species assumed): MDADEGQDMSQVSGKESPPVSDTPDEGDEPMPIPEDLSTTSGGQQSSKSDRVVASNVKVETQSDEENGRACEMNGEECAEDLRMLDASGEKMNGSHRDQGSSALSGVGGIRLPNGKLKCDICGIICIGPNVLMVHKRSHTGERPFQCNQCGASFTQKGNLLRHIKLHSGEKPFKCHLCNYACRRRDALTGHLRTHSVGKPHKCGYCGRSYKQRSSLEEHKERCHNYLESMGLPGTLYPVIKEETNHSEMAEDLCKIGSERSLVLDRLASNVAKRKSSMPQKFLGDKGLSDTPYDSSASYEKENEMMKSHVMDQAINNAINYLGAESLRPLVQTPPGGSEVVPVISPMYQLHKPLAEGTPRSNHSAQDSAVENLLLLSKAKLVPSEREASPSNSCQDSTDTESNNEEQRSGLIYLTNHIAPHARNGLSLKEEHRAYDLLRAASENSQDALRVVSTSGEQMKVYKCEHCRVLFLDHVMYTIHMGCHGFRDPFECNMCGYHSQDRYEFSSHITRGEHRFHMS
T1 sequence (Q96SW2 whole entry, species assumed): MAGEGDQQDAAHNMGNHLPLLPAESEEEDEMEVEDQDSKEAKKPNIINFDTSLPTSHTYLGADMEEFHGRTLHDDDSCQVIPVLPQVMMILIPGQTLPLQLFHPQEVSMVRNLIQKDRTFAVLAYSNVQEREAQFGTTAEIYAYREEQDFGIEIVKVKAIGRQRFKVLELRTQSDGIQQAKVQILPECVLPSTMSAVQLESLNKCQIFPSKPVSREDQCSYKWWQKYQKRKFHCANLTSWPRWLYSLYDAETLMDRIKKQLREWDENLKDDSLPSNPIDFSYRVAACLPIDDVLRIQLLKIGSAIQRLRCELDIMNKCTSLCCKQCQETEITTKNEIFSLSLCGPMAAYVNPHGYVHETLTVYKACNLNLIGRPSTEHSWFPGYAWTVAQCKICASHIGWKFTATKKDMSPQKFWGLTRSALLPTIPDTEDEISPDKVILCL
T1 sequence (Q16531 whole entry partner, species assumed): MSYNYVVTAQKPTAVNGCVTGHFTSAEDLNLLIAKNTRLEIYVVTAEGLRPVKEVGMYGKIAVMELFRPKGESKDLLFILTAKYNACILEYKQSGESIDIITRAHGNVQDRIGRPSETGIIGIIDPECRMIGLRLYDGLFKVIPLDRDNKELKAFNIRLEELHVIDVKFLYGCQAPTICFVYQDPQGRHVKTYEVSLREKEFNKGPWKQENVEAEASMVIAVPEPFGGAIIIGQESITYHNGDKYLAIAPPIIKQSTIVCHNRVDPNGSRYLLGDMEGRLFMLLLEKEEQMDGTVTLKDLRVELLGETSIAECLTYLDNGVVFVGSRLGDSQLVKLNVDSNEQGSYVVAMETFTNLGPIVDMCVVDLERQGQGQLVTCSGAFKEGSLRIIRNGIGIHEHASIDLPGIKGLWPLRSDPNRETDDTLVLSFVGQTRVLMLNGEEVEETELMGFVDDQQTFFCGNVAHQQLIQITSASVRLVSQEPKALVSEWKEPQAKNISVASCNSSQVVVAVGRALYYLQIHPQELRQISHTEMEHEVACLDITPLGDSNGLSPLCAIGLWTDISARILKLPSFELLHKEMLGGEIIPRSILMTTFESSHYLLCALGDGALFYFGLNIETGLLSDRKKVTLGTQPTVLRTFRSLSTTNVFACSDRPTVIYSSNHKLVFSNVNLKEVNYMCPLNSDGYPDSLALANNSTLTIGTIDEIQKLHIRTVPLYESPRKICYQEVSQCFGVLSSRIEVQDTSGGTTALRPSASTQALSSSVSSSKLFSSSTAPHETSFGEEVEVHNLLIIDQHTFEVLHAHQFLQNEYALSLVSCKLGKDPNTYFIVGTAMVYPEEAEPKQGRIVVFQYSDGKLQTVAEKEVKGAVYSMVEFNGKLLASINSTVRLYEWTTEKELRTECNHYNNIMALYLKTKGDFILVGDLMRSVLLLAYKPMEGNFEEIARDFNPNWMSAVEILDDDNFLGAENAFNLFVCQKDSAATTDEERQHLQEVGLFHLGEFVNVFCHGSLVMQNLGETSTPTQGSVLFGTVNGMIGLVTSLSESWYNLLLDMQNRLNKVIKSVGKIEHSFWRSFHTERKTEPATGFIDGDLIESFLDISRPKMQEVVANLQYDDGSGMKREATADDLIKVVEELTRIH
T3 sequence (P15170 whole entry, species assumed): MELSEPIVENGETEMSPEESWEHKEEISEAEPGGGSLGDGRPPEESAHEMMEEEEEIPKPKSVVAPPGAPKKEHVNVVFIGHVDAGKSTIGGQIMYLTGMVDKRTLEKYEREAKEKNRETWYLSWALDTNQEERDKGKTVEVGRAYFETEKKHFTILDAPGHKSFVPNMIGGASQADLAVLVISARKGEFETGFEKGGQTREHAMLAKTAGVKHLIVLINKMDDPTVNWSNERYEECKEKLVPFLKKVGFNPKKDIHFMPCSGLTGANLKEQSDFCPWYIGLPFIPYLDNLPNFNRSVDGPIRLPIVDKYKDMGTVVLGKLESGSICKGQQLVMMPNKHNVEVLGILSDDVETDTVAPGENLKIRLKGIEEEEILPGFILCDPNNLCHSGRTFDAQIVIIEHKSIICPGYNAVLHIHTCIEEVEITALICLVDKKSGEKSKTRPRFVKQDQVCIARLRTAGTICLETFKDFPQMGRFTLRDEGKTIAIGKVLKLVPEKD
T3 sequence (Q96SW2 whole entry, species assumed): as the sequence (Q96SW2 whole entry, species assumed) above
T3 sequence (Q16531 whole entry partner, species assumed): as the sequence (Q16531 whole entry partner, species assumed) above
T2 sequence (Q9UJQ4 whole entry, species assumed): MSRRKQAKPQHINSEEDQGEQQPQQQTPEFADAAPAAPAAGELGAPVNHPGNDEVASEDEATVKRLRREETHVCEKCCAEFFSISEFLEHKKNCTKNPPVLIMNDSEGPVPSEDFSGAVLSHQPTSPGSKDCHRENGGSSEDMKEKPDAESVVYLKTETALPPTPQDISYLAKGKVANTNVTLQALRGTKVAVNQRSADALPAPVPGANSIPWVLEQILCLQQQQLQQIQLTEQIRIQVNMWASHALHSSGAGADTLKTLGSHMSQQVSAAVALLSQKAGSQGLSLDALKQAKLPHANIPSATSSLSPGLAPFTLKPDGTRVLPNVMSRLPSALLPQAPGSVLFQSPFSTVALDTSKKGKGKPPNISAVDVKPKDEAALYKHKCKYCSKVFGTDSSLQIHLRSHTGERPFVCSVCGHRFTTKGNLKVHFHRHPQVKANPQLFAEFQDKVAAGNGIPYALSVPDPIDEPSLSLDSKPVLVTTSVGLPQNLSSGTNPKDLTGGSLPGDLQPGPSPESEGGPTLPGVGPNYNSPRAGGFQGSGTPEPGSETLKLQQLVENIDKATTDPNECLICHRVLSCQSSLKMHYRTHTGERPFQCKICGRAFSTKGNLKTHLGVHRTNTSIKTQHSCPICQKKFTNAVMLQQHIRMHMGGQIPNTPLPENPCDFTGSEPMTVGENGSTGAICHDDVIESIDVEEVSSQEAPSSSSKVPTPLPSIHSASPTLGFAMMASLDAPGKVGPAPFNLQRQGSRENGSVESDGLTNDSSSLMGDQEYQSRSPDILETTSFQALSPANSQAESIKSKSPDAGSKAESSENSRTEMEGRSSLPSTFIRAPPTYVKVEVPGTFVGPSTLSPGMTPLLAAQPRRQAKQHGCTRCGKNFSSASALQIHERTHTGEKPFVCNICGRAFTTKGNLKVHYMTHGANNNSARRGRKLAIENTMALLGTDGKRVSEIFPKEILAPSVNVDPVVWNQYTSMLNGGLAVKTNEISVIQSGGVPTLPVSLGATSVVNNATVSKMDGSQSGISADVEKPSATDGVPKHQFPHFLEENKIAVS
T2 sequence (Q96SW2 whole entry, species assumed): as the sequence (Q96SW2 whole entry, species assumed) above
T2 sequence (Q16531 whole entry partner, species assumed): as the sequence (Q16531 whole entry partner, species assumed) above

CN(C)CC#Cc1ccc2c(N3CCC(=O)NC3=O)coc2c1 [Compound I-11, 1-(6-(3-(dimethylamino)prop-1-yn-1-yl)benzofuran-3-yl)dihydropyrimidine-2,4(1H,3H)-dione]
percent IKZF1 protein reduction at 10 µM [1]: > 90% | DC50 [1]: 46 nM

O=C1CCN(c2coc3ccc(NC(=O)Oc4ccccc4)cc23)C(=O)N1 [Compound I-6, Phenyl (3-(2,4-dioxotetrahydropyrimidin-1(2H)-yl)benzofuran-5-yl)carbamate]
percent IKZF1 protein reduction at 10 µM [1]: 75% | DC50 [1]: 120 nM

C#Cc1ccc2c(N3CCC(=O)NC3=O)coc2c1 [Compound I-2, 1-(6-Ethynylbenzofuran-3-yl)dihydropyrimidine-2,4(1H,3H)-dione]
percent IKZF1 protein reduction at 10 µM [1]: > 90% | DC50 [1]: 60 nM

Cc1ccc2occ(N3CCC(=O)NC3=O)c2c1 [Compound I-3, 1-(5-Methylbenzofuran-3-yl)dihydropyrimidine-2,4(1H,3H)-dione]
percent IKZF1 protein reduction at 10 µM [1]: > 90% | DC50 [1]: 16 nM

Cc1ccc2c(N3CCC(=O)NC3=O)noc2c1 [Compound I-13, 1-(6-Methylbenzo[d]isoxazol-3-yl)dihydropyrimidine-2,4(1H,3H)-dione]
percent IKZF1 protein reduction at 10 µM [1]: > 90% | DC50 [1]: 6 nM

O=C1CCN(c2coc3ccc(I)cc23)C(=O)N1 [Compound I-4, 1-(5-Iodobenzofuran-3-yl)dihydropyrimidine-2,4(1H,3H)-dione]
percent IKZF1 protein reduction at 10 µM [1]: 60% | DC50 [1]: 51 nM

O=c1ccn(-c2cnc3cc(Br)ccn23)c(=O)[nH]1 [Compound I-18, 1-(7-Bromoimidazo[1,2-a]pyridin-3-yl)pyrimidine-2,4(1H,3H)-dione]
percent IKZF1 protein reduction at 10 µM [1]: 40%

O=C1CCN(c2coc3cc(C(=O)NCc4ccccc4)ccc23)C(=O)N1 [Compound I-12, N-benzyl-3-(2,4-dioxotetrahydropyrimidin-1(2H)-yl)benzofuran-6-carboxamide]
DC50 [1]: > 20000 nM

Cc1ccc(CCOc2ccc3c(N4CCC(=O)NC4=O)noc3c2)cc1 [Compound I-15, 1-(6-(4-Methylphenethoxy)benzo[d]isoxazol-3-yl)dihydropyrimidine-2,4(1H,3H)-dione]
percent IKZF1 protein reduction at 10 µM [1]: 80% | DC50 [1]: 630 nM

O=c1ccn(-c2cnc3cc(C4=CCN(Cc5ccccc5)CC4)ccn23)c(=O)[nH]1 [Compound I-17, 1-(7-(1-Benzyl-1,2,3,6-tetrahydropyridin-4-yl)imidazo[1,2-a]pyridin-3-yl)pyrimidine-2,4(1H,3H)-dione]
percent IKZF1 protein reduction at 10 µM [1]: 80% | DC50 [1]: 430 nM

O=C1CCN(c2noc3ccc(Cl)cc23)C(=O)N1 [Compound I-14, 1-(5-Chlorobenzo[d]isoxazol-3-yl)dihydropyrimidine-2,4(1H,3H)-dione]
percent IKZF1 protein reduction at 10 µM [1]: > 90% | DC50 [1]: 25 nM

O=C1CCN(c2coc3ccccc23)C(=O)N1 [Compound I-1, 1-(Benzofuran-3-yl)dihydropyrimidine-2,4(1H,3H)-dione]
percent IKZF1 protein reduction at 10 µM [1]: 75% | DC50 [1]: 57 nM

O=c1ccn(-c2cnc3ccc(C4CCN(Cc5ccccc5)CC4)cc3c2)c(=O)[nH]1 [Compound I-16, 1-(6-(1-benzylpiperidin-4-yl)quinolin-3-yl)pyrimidine-2,4(1H,3H)-dione]
DC50 [1]: > 20000 nM

O=C1CCN(c2coc3cc(I)ccc23)C(=O)N1 [Compound I-5, 1-(6-Iodobenzofuran-3-yl)dihydropyrimidine-2,4(1H,3H)-dione]
percent IKZF1 protein reduction at 10 µM [1]: > 90% | DC50 [1]: 130 nM | SALL4 % protein Reduction at 10 μM, 24 h [2]: 60%

O=C1CCN(c2cnn3cc(Cl)ccc23)C(=O)N1 [Compound I-7, 1-(6-Chloropyrazolo[1,5-a]pyridin-3-yl)dihydropyrimidine-2,4(1H,3H)-dione]
percent IKZF1 protein reduction at 10 µM [1]: > 90% | DC50 [1]: 6 nM

O=C1CCN(c2cnc3cc(C4=CCN(Cc5ccccc5)CC4)ccn23)C(=O)N1 [Compound I-8, 1-(7-(1-Benzyl-1,2,3,6-tetrahydropyridin-4-yl)imidazo[1,2-a]pyridin-3-yl)dihydropyrimidine-2,4(1H,3H)-dione]
percent IKZF1 protein reduction at 10 µM [1]: > 90% | DC50 [1]: 41 nM

O=C1CCN(c2cnc3ccc(C4CCN(Cc5ccccc5)CC4)cn23)C(=O)N1 [Compound I-10, 1-(6-(1-Benzylpiperidin-4-yl)imidazo[1,2-a]pyridin-3-yl)dihydropyrimidine-2,4(1H,3H)-dione]
GSPT1 % protein reduction at 10 μM, 24 h [3]: 80% | DC50 [3]: 170 nM | SALL4 % protein Reduction at 10 μM, 24 h [2]: 60%

CC(C)(C)c1ccc(C(=O)N2CC=C(c3ccn4c(N5CCC(=O)NC5=O)cnc4c3)CC2)cc1 [Compound I-9, 1-(7-(1-(4-(tert-Butyl)benzoyl)-1,2,3,6-tetrahydropyridin-4-yl)imidazo[1,2-a]pyridin-3-yl)dihydropyrimidine-2,4(1H,3H)-dione]
GSPT1 % protein reduction at 10 μM, 24 h [3]: 80% | DC50 [3]: 170 nM
